Measurements: patent US20080261984A1, “Use of S,S-Reboxetine in the Treatment of Pain” (Pfizer Inc., priority 2004, published 2008)

Columns and labels:
[1] = treatment of pain in patients who do not respond to alpha-2-delta ligands such as gabapentin (PHN study); details: human, in vivo
Method: The following study is carried out to assess the efficacy of (S,S)-reboxetine in the treatment of patients with post-herpetic neuralgia (PHN) who fail to respond to gabapentin (GBP) treatment.
Study Population Male or female patients aged 18 years or older, with pain present more than 3 months after healing of the Herpes Zoster skin rash and who are also GBP treatment failures. No upper limit on the duration of PHN is imposed. GBP failures are defined as either: […]
Those patients who show no or minimal improvement on the Patient Global Impression of Change (PGIC) after treatment with GBP (1800 mg/day) administered for a period of […]
Those who are unable to tolerate doses of GBP less than or equal to 1800 mg/day.
Study Design Randomized, double-blind, placebo-controlled, 2-treatment (placebo and active), age-stratified study in patients aged 18 years or older, who suffer from PHN. The study is comprised of 3 phases: (i) 7-weeks screening including 4-weeks GBP treatment, (ii) 5-weeks randomized treatment, and (iii) 1-week follow-up period.
All patients who meet entry criteria initially enter a 1-week run-in period during which a daily pain diary will be maintained. Thereafter, if the severity of pain meets relevant criteria for inclusion in the study, patients enter a 4-week period during which they will receive GBP treatment. […]

dopamine reuptake = dopamine reuptake (Homo sapiens, UniProt Q01959); details: cited from earlier work
Chain of dopamine reuptake (Q01959 whole entry): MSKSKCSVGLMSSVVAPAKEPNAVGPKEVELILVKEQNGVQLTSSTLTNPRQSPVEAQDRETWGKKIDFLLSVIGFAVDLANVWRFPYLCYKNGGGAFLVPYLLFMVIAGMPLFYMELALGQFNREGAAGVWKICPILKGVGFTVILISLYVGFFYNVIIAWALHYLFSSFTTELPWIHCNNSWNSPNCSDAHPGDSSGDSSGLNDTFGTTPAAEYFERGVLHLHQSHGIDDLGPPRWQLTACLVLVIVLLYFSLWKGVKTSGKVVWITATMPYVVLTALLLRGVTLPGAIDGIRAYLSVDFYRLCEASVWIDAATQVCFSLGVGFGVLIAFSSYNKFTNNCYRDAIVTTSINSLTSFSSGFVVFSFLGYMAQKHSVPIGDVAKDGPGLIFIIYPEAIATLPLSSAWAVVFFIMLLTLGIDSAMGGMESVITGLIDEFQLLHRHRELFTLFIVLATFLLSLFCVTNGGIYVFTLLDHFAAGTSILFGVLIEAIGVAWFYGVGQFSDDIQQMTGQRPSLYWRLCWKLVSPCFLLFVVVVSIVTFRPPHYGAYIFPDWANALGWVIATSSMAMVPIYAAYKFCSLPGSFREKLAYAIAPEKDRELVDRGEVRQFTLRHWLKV

[2] = in vivo; cited from earlier work
anticholinergic binding = details: different animal models; cited from earlier work
monoamine oxidase (MAO) = details: cited from earlier work
[3] = patients receiving gabapentin; cited from earlier work
[4] = in vivo; cited from earlier work; remark: listed apart in the source
norepinephrine reuptake = norepinephrine reuptake (Homo sapiens, UniProt P23975); details: cited from earlier work
Chain of norepinephrine reuptake (P23975 whole entry): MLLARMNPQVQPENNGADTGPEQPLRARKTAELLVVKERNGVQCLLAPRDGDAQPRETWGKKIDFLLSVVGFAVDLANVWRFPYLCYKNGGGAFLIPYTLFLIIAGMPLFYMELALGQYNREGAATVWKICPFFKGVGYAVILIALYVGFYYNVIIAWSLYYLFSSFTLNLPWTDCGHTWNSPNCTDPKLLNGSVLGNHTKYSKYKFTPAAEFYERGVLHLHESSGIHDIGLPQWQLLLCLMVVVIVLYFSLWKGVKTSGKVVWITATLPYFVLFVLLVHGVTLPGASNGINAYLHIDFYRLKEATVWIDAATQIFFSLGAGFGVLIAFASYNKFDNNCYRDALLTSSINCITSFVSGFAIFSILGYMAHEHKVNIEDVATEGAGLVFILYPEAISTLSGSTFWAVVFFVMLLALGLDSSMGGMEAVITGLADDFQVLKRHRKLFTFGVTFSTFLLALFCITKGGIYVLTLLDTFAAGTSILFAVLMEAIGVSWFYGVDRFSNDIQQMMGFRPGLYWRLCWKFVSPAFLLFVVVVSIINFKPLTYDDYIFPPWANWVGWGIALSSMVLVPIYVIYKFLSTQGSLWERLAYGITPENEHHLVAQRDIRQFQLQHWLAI

CCOc1ccccc1O[C@@H](c1ccccc1)[C@@H]1CNCCO1 [(S,S)-reboxetine]
efficacy in treating pain in patients who do not respond to alpha-2-delta ligands [1]: efficacious
dopamine reuptake inhibitory activity (dopamine reuptake): no

CCOc1ccccc1OC(c1ccccc1)C1CNCCO1 (racemic) [reboxetine, (RR, SS)-2-[α-(2-ethoxyphenoxy)benzyl]morpholine]
effect in the 8-OH-DPAT hypothermia test [2]: ineffective
anticholinergic binding activity (anticholinergic binding): no anticholinergic binding activity
monoamine oxidase (MAO) inhibitory activity (monoamine oxidase (MAO)): substantially devoid

NCC1(CC(=O)O)CCCCC1 [gabapentin, 1-(aminomethyl)-cyclohexylacetic acid]
patients noting at least a moderate improvement (score of 1 or 2) on the Patient Global Impression of Change [3]: Approximately 60%
efficacy in the treatment of painful diabetic neuropathy [4]: efficacious

COc1ccc(C(CN(C)C)C2(O)CCCCC2)cc1 (stereo not drawn) [venlafaxine]
norepinephrine reuptake inhibitory activity (norepinephrine reuptake): potent inhibitor
dopamine reuptake inhibitory activity (dopamine reuptake): weak inhibitor
